What was measured:
[1] = Liquid, Vibrating tube method
[2] = refractive index (Na D-line) (dimensionless); settings: 298.15 K; 101.33 kPa; Liquid; Standard Abbe refractometry

CNC=O [N-methylformamide]
[1]
Settings | mass density [kg/m3]
293.15 K, 200 kPa | 1004
293.15 K, 500 kPa | 1004
293.15 K, 1000 kPa | 1004
293.15 K, 2500 kPa | 1005
293.15 K, 5000 kPa | 1006
293.15 K, 7600 kPa | 1008
293.15 K, 10100 kPa | 1009
293.15 K, 15000 kPa | 1012
293.15 K, 20100 kPa | 1015
293.15 K, 25100 kPa | 1017
293.15 K, 30100 kPa | 1020
293.15 K, 35000 kPa | 1023
298.15 K, 101.33 kPa | 999.361
303.15 K, 200 kPa | 995
303.15 K, 500 kPa | 995
303.15 K, 1100 kPa | 995
303.15 K, 2500 kPa | 996
303.15 K, 5100 kPa | 998
303.15 K, 7600 kPa | 999
303.15 K, 10000 kPa | 1000
303.15 K, 15100 kPa | 1004
303.15 K, 20100 kPa | 1006
303.15 K, 25100 kPa | 1009
303.15 K, 30000 kPa | 1012
303.15 K, 35000 kPa | 1014
313.15 K, 200 kPa | 986
313.15 K, 500 kPa | 986
313.15 K, 1100 kPa | 987
313.15 K, 2600 kPa | 987
313.15 K, 5100 kPa | 989
313.15 K, 7500 kPa | 990
313.15 K, 10100 kPa | 992
313.15 K, 15000 kPa | 995
313.15 K, 20000 kPa | 998
313.15 K, 25100 kPa | 1001
313.15 K, 30000 kPa | 1004
313.15 K, 35000 kPa | 1006
323.15 K, 100 kPa | 977
323.15 K, 500 kPa | 977
323.15 K, 1000 kPa | 978
323.15 K, 2500 kPa | 979
323.15 K, 5000 kPa | 980
323.15 K, 7500 kPa | 982
323.15 K, 10000 kPa | 984
323.15 K, 15100 kPa | 987
323.15 K, 20100 kPa | 990
323.15 K, 25000 kPa | 993
323.15 K, 30100 kPa | 996
323.15 K, 35100 kPa | 999
333.15 K, 100 kPa | 969
333.15 K, 500 kPa | 969
333.15 K, 1000 kPa | 969
333.15 K, 2500 kPa | 970
333.15 K, 5000 kPa | 972
333.15 K, 7500 kPa | 974
333.15 K, 10000 kPa | 975
333.15 K, 15000 kPa | 979
333.15 K, 20100 kPa | 982
333.15 K, 25000 kPa | 985
333.15 K, 30000 kPa | 988
333.15 K, 35000 kPa | 990
343.15 K, 100 kPa | 960
343.15 K, 500 kPa | 960
343.15 K, 1000 kPa | 960
343.15 K, 2500 kPa | 962
343.15 K, 5100 kPa | 963
343.15 K, 7500 kPa | 965
343.15 K, 10100 kPa | 967
343.15 K, 15100 kPa | 970
343.15 K, 20000 kPa | 973
343.15 K, 25100 kPa | 977
343.15 K, 30100 kPa | 980
343.15 K, 35100 kPa | 983
353.15 K, 100 kPa | 950
353.15 K, 500 kPa | 950
353.15 K, 1000 kPa | 952
353.15 K, 2500 kPa | 953
353.15 K, 5100 kPa | 955
353.15 K, 7600 kPa | 957
353.15 K, 10000 kPa | 958
353.15 K, 15100 kPa | 962
353.15 K, 20100 kPa | 965
353.15 K, 25000 kPa | 969
353.15 K, 30100 kPa | 972
353.15 K, 35100 kPa | 975
363.15 K, 100 kPa | 942
363.15 K, 500 kPa | 943
363.15 K, 1000 kPa | 943
363.15 K, 2500 kPa | 944
363.15 K, 5100 kPa | 946
363.15 K, 7600 kPa | 948
363.15 K, 10100 kPa | 950
363.15 K, 15100 kPa | 954
363.15 K, 20100 kPa | 957
363.15 K, 25000 kPa | 960
363.15 K, 30100 kPa | 964
363.15 K, 35000 kPa | 967
373.15 K, 100 kPa | 934
373.15 K, 500 kPa | 934
373.15 K, 1000 kPa | 934
373.15 K, 2500 kPa | 936
373.15 K, 5100 kPa | 938
373.15 K, 7600 kPa | 940
373.15 K, 10000 kPa | 941
373.15 K, 15100 kPa | 945
373.15 K, 20100 kPa | 949
373.15 K, 25000 kPa | 952
373.15 K, 30100 kPa | 956
373.15 K, 35000 kPa | 959
398.15 K, 100 kPa | 911
398.15 K, 500 kPa | 912
398.15 K, 1100 kPa | 912
398.15 K, 2500 kPa | 913
398.15 K, 5000 kPa | 916
398.15 K, 7600 kPa | 918
398.15 K, 10000 kPa | 920
398.15 K, 15000 kPa | 924
398.15 K, 20100 kPa | 928
398.15 K, 25000 kPa | 932
398.15 K, 30000 kPa | 936
398.15 K, 35100 kPa | 940
423.15 K, 100 kPa | 888
423.15 K, 500 kPa | 889
423.15 K, 1000 kPa | 889
423.15 K, 2600 kPa | 890
423.15 K, 5100 kPa | 893
423.15 K, 7500 kPa | 896
423.15 K, 10000 kPa | 898
423.15 K, 15200 kPa | 903
423.15 K, 20100 kPa | 907
423.15 K, 25100 kPa | 911
423.15 K, 30100 kPa | 916
423.15 K, 35100 kPa | 920

Settings | refractive index
[2] | 1.43063

From the NIST ThermoML archive (doi:10.1016/j.fluid.2016.08.014)
